Measurements published in patent publication US8779779B2, “On-chip cell migration detection” (CapitalBio Corporation, priority 2008, dated 2014).

System: Vero-E6 cells
Assay: Real time inhibition assay of cell migration (on-chip SAM wound edge with cellular impedance sensing)
Type: cell-based
Protocol: For at least one of the electrodes, the surface is treated with a chemical coating that inhibits cell adhesion onto the electrode (302). This generates a chemical coat-modified surface on the electrodes. The chemical coating maintains contact with the surface of the electrodes until desorbed by application of an electrical signal capable of desorbing the coating. The chemical coating can be applied by contacting the electrodes with a solution or suspension of coating material in a carrier, or by contacting the electrode with the coating material without a carrier. A background impedance value is measured in absence of cells (304). After measuring the background impedance (Z0), target cells are added to the device (306). A layer of cells is allowed to grow on the surface of the device (308). […] As a result, all the cells grow on the surface of the SiO2 insulation substrate forming a cell monolayer. After incubation, wound edges are formed automatically on the device. Once the cells have grown over the surfaces, an electrical signal is applied to the electrodes, which causes the chemical coating to desorb from the electrodes (310). This provides a cell-free electrode surface surrounded by cells growing on the adjacent insulation. The cell impedance (Zx) is monitored in real-time as the cells grow or migrate across the electrodes (312). Cells growing on the electrodes can cause measurable changes in the electrical properties of the circuit, e.g., impedance; consequently, the rate of cell migration or spreading can be monitored by monitoring electrical properties of the electrodes. The final impedance data is normalized as Zx/Z0 (314). The normalized impedance data reflects the impedance variation induced by the attachment of the cells.
For illustrative purposes, the process 300 is described using an example protocol for monitoring cell migration. An example protocol includes preparing an impedance measuring device (e.g., device 100) for impedance measurement by sterilizing the device. After sterilization, (e.g., in 75% ethanol for 20 minutes and then exposure to UV irradiation for another 30 minutes), a thiol compound is added to the microfluidic cavities. Thiol compound (HS(CH2)11(OCH2CH2)6OH (abbreviated as “EG6”) is obtained from Sigma-Aldrich (St. Louis, Mo.). EG6 (1.5 mM in ethanol) can be added to each microfluidic cavity of the device using a syringe and incubated for 8 hours at room temperature. Then, the microfluidic cavities are washed by ethanol followed by PBS buffer. Before cell seeding, tissue culture media is injected into chambers of the device to read the background impedance value (Z0). […]
At the same time, the impedance (Zx) is measured in real-time with a time resolution of 5 minutes, for example. […]

## COc1cc2c(c(OC)c1OC)-c1ccc(OC)c(=O)cc1[C@@H](NC(C)=O)CC2 [colchicine]
0.1 μM colchicine, Vero-E6 cells, control tc=4.2±0.17 h
  time point at which the cells heal a wound (t0.1; impedance saturation): 4.6 ± 0.19 h
0.2 μM colchicine, Vero-E6 cells, control tc=4.2±0.17 h
  time point at which the cells heal a wound (t0.2; impedance saturation): 5.1 ± 0.21 h
0.4 μM colchicine, Vero-E6 cells, control tc=4.2±0.17 h
  time point at which the cells heal a wound (t0.4; impedance saturation): 8.2 ± 0.42 h
0.1, 0.2 and 0.4 μM, AS=R×t^−1, FIG. 7B
  inhibition effect on Vero-E6 cell migration (average speed AS): inhibits Vero-E6 cell migration in a drug concentration dependant manner
